Data from patent US11000033B2, “Ketone or oxime compound, and herbicide” (NISSAN CHEMICAL CORPORATION, priority 2014, dated 2021).

Experiments:
Format in all cases: in vivo
rapeseed = assay: Test Example 5: effect on crop by foliage application, plastic box (symbol g); conditions: 320 g/ha, 3 weeks after application
Outline: (§1)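 Greenhouse test at 25° C. to 30° C. Seeds of crops and weeds were spot-sown in boxes of sterilized diluvial soil under roughly 1.5 cm soil cover, then grown for foliage treatment.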

Amaranthus retroflexus = assay: Test Example 4: herbicidal effect by soil treatment (symbol N); conditions: application herbicide amount 320 g/ha
Outline: (§2)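 Seeds were sown in sterilized diluvial soil, covered with about 1.5 cm of soil, and the soil surface was sprayed with a water-diluted emulsion of the compound at a predetermined rate. Plants grew in a greenhouse at 25° C. to 30° C.; effects were scored visually 3 weeks after application.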

Stellaria media = assay: Test Example 5: herbicidal effect by foliage application, plastic box (symbol P); conditions: 320 g/ha, 3 weeks after application
Outline: (§3)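 Leaf-applied emulsion, water-diluted to a preset herbicide dose, on two-week-old seedlings raised in a 25° C. to 30° C. greenhouse; injury rated at 3 weeks using earlier criteria.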

Leptochloa chinensis = assay: Test Example 3: herbicidal effect by foliage application, Wagner pot (symbol D); conditions: application herbicide amount 320 g/ha
Outline: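 Foliar spray of a water-diluted emulsion at a predetermined herbicide amount, applied to 14-day-old plants. Seedlings were raised in flooded alluvial soil (0.1–0.5 cm water) at 25–30 °C in a greenhouse. Injury was rated after 3 weeks against fixed criteria.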

Apera spica-venti [1] = assay: Test Example 5: herbicidal effect by foliage application, plastic box (symbol L); conditions: 320 g/ha, 3 weeks after application
Outline: as §3

beet = assay: Test Example 5: effect on crop by foliage application, plastic box (symbol f); conditions: 320 g/ha, 3 weeks after application
Outline: as §1

Chenopodium album = assay: Test Example 5: herbicidal effect by foliage application, plastic box (symbol O); conditions: 320 g/ha, 3 weeks after application
Outline: as §3

Veronica persica = assay: Test Example 5: herbicidal effect by foliage application, plastic box (symbol R); conditions: 320 g/ha, 3 weeks after application
Outline: as §3

Galium spurium = assay: Test Example 5: herbicidal effect by foliage application, plastic box (symbol Q); conditions: 320 g/ha, 3 weeks after application
Outline: as §3

Avena fatua [2] = assay: Test Example 4: herbicidal effect by soil treatment (symbol I); conditions: application herbicide amount 320 g/ha
Outline: as §2

soybean = assay: Test Example 4: effect on crop by soil treatment (symbol d); conditions: application herbicide amount 320 g/ha
Outline: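 Soil-treatment setup: crop and weed seeds were spot-sown into sterilized diluvial soil, then buried beneath approximately 1.5 cm of it, and the boxes were housed in a 25–30° C. greenhouse.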

Avena fatua [3] = assay: Test Example 5: herbicidal effect by foliage application, plastic box (symbol I); conditions: 320 g/ha, 3 weeks after application
Outline: as §3

Scirpus juncoides = assay: Test Example 1: herbicidal activity, application before weed generation in submerged conditions (symbol B); conditions: application herbicide amount 320 g/ha
Outline: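 Application before weed emergence: an aqueous dilution of the emulsion formulation was poured onto the surface of 4 cm-deep floodwater on the day of sowing. Effect was judged after 3 weeks (greenhouse, 25–30 °C).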

Setaria viridis = assay: Test Example 4: herbicidal effect by soil treatment (symbol G); conditions: application herbicide amount 320 g/ha
Outline: as §2

[4] = system: Echinochloa crus-galli var. crus-galli; assay: Test Example 5: herbicidal effect by foliage application, plastic box (symbol H); conditions: 320 g/ha, 3 weeks after application
Outline: as §3

Abutilon theophrasti = assay: Test Example 5: herbicidal effect by foliage application, plastic box (symbol M); conditions: 320 g/ha, 3 weeks after application
Outline: as §3

Apera spica-venti [5] = assay: Test Example 4: herbicidal effect by soil treatment (symbol L); conditions: application herbicide amount 320 g/ha
Outline: as §2

Digitaria ciliaris = assay: Test Example 5: herbicidal effect by foliage application, plastic box (symbol F); conditions: 320 g/ha, 3 weeks after application
Outline: as §3

Compound	g: rapeseed, effect on crop (criteria of Test Example 1) (rapeseed)	Herbicidal effect grade, N: Amaranthus retroflexus (Amaranthus retroflexus)	P: Stellaria media, herbicidal effect (criteria of Test Example 1) (Stellaria media)	herbicidal effect on D (Leptochloa chinensis), grade 0-5 (Leptochloa chinensis)	L: Apera spica-venti, herbicidal effect (criteria of Test Example 1) (Apera spica-venti [1])	f: beet, effect on crop (criteria of Test Example 1) (beet)	O: Chenopodium album, herbicidal effect (criteria of Test Example 1) (Chenopodium album)	R: Veronica persica, herbicidal effect (criteria of Test Example 1) (Veronica persica)	Herbicidal effect grade, I: Avena fatua (Avena fatua [2])	Effect on crop grade, d: soybean (soybean)	I: Avena fatua, herbicidal effect (criteria of Test Example 1) (Avena fatua [3])	Herbicidal effect grade, B: Scirpus juncoides (Scirpus juncoides)	Herbicidal effect grade, G: Setaria viridis (Setaria viridis)	H: Echinochloa crus-galli var. crus-galli, herbicidal effect grade [4]	g: rapeseed, effect on crop grade (rapeseed)	M: Abutilon theophrasti, herbicidal effect grade (Abutilon theophrasti)	L: Apera spica-venti, herbicidal effect grade (Apera spica-venti [1])	Herbicidal effect grade, L: Apera spica-venti (Apera spica-venti [5])	f: beet, effect on crop grade (beet)	O: Chenopodium album, herbicidal effect grade (Chenopodium album)	further results
CON=C(C)CC1CC(O)=C(c2c(F)cc(Br)cc2OC)C1=O (stereo not drawn) [6-096]	4 (Herbicidal ratio of 70% or higher and lower than 90%)	0 (Herbicidal ratio of 5% or lower (almost no effect))	1 (Herbicidal ratio of 5% or higher and lower than 20%)	4 (Herbicidal ratio of 70% or higher and lower than 90%)	3 (Herbicidal ratio of 40% or higher and lower than 70%)	0 (Herbicidal ratio of 5% or lower (almost no effect))	1 (Herbicidal ratio of 5% or higher and lower than 20%)	3 (Herbicidal ratio of 40% or higher and lower than 70%)	3 (Herbicidal ratio of 40% or higher and lower than 70%)	0 (Herbicidal ratio of 5% or lower (almost no effect))	5 (Herbicidal ratio of 90% or more (almost completely withered))	0 (Herbicidal ratio of 5% or lower (almost no effect))	4 (Herbicidal ratio of 70% or higher and lower than 90%)								Q: Galium spurium, herbicidal effect (criteria of Test Example 1) (Galium spurium): 0 (Herbicidal ratio of 5% or lower (almost no effect))
CON=C(C)C(=O)C1CC(O)=C(c2c(C)cc(C)cc2C)C1=O (stereo not drawn) [8-002]		0 (Herbicidal ratio of 5% or lower (almost no effect))							0 (Herbicidal ratio of 5% or lower (almost no effect))	0 (Herbicidal ratio of 5% or lower (almost no effect))		0 (Herbicidal ratio of 5% or lower (almost no effect))	0 (Herbicidal ratio of 5% or lower (almost no effect))	3 (Herbicidal ratio of 40% or higher and lower than 70%)	1 (Herbicidal ratio of 5% or higher and lower than 20%)	0 (Herbicidal ratio of 5% or lower (almost no effect))	3 (Herbicidal ratio of 40% or higher and lower than 70%)	0 (Herbicidal ratio of 5% or lower (almost no effect))	0 (Herbicidal ratio of 5% or lower (almost no effect))	0 (Herbicidal ratio of 5% or lower (almost no effect))	P: Stellaria media, herbicidal effect grade (Stellaria media): 0 (Herbicidal ratio of 5% or lower (almost no effect)); D (Leptochloa chinensis) herbicidal effect grade (Leptochloa chinensis; Table 24): 0 (Herbicidal ratio of 5% or lower (almost no effect)); R: Veronica persica, herbicidal effect grade (Veronica persica): 0 (Herbicidal ratio of 5% or lower (almost no effect)); F: Digitaria ciliaris, herbicidal effect grade (Digitaria ciliaris): 0 (Herbicidal ratio of 5% or lower (almost no effect)); I: Avena fatua, herbicidal effect grade (Avena fatua [3]): 3 (Herbicidal ratio of 40% or higher and lower than 70%)
CON=C(C)CC1CC(OC(=O)N2CCOCC2)=C(c2c(C)cc(-c3ccc(Cl)cc3)cc2OC)C1=O (stereo not drawn) [6-078, 2-(4′-chloro-3-methoxy-5-methyl-[1,1′-biphenyl]-4-yl)-4-{2-(methoxyimino)propyl}-3-oxocyclopent-1-ene-1-yl morpholine-4-carboxylate]	4 (Herbicidal ratio of 70% or higher and lower than 90%)		3 (Herbicidal ratio of 40% or higher and lower than 70%)	5 (Herbicidal ratio of 90% or more (almost completely withered))	5 (Herbicidal ratio of 90% or more (almost completely withered))	0 (Herbicidal ratio of 5% or lower (almost no effect))	1 (Herbicidal ratio of 5% or higher and lower than 20%)	3 (Herbicidal ratio of 40% or higher and lower than 70%)			5 (Herbicidal ratio of 90% or more (almost completely withered))	5 (Herbicidal ratio of 90% or more (almost completely withered))									H: Echinochloa crus-galli var. crus-galli, herbicidal effect (criteria of Test Example 1) [4]: 5 (Herbicidal ratio of 90% or more (almost completely withered)); M: Abutilon theophrasti, herbicidal effect (criteria of Test Example 1) (Abutilon theophrasti): 4 (Herbicidal ratio of 70% or higher and lower than 90%); N: Amaranthus retroflexus, herbicidal effect grade (Amaranthus retroflexus): 0 (Herbicidal ratio of 5% or lower (almost no effect)); L: Apera spica-venti, herbicidal effect grade (Apera spica-venti [5]): 3 (Herbicidal ratio of 40% or higher and lower than 70%); I: Avena fatua, herbicidal effect grade (Avena fatua [2]): 3 (Herbicidal ratio of 40% or higher and lower than 70%); d: soybean, effect on crop grade (soybean): 1 (Herbicidal ratio of 5% or higher and lower than 20%); F: Digitaria ciliaris, herbicidal effect (criteria of Test Example 1) (Digitaria ciliaris): 5 (Herbicidal ratio of 90% or more (almost completely withered)); G: Setaria viridis, herbicidal effect grade (Setaria viridis): 5 (Herbicidal ratio of 90% or more (almost completely withered))
CON=C(C)CC1CC(OC(=O)C(C)(C)Oc2ccccc2)=C(c2c(C)cc(C)cc2C)C1=O (stereo not drawn) [1-017]				5 (Herbicidal ratio of 90% or more (almost completely withered))								5 (Herbicidal ratio of 90% or more (almost completely withered))		5 (Herbicidal ratio of 90% or more (almost completely withered))	4 (Herbicidal ratio of 70% or higher and lower than 90%)	4 (Herbicidal ratio of 70% or higher and lower than 90%)	5 (Herbicidal ratio of 90% or more (almost completely withered))		2 (Herbicidal ratio of 20% or higher and lower than 40%)	2 (Herbicidal ratio of 20% or higher and lower than 40%)	N (Amaranthus retroflexus) herbicidal effect grade (Amaranthus retroflexus): 5 (Herbicidal ratio of 90% or more (almost completely withered)); L (Apera spica-venti) herbicidal effect grade (Apera spica-venti [5]): 5 (Herbicidal ratio of 90% or more (almost completely withered)); R: Veronica persica, herbicidal effect grade (Veronica persica): 3 (Herbicidal ratio of 40% or higher and lower than 70%); I (Avena fatua) herbicidal effect grade (Avena fatua [2]): 5 (Herbicidal ratio of 90% or more (almost completely withered)); d (soybean) effect on crop grade (soybean): 2 (Herbicidal ratio of 20% or higher and lower than 40%); F: Digitaria ciliaris, herbicidal effect grade (Digitaria ciliaris): 5 (Herbicidal ratio of 90% or more (almost completely withered)); I: Avena fatua, herbicidal effect grade (Avena fatua [3]): 5 (Herbicidal ratio of 90% or more (almost completely withered)); G (Setaria viridis) herbicidal effect grade (Setaria viridis): 5 (Herbicidal ratio of 90% or more (almost completely withered))
CC(=O)CC1CC(O)=C(c2c(C)cc(-c3ccc(Cl)cc3)cc2C)C1=O (stereo not drawn) [7-008]	3 (Herbicidal ratio of 40% or higher and lower than 70%)	0 (Herbicidal ratio of 5% or lower (almost no effect))	1 (Herbicidal ratio of 5% or higher and lower than 20%)	5 (Herbicidal ratio of 90% or more (almost completely withered))	5 (Herbicidal ratio of 90% or more (almost completely withered))	0 (Herbicidal ratio of 5% or lower (almost no effect))	2 (Herbicidal ratio of 20% or higher and lower than 40%)	3 (Herbicidal ratio of 40% or higher and lower than 70%)	3 (Herbicidal ratio of 40% or higher and lower than 70%)	0 (Herbicidal ratio of 5% or lower (almost no effect))	5 (Herbicidal ratio of 90% or more (almost completely withered))	2 (Herbicidal ratio of 20% or higher and lower than 40%)	5 (Herbicidal ratio of 90% or more (almost completely withered))					5 (Herbicidal ratio of 90% or more (almost completely withered))			H: Echinochloa crus-galli var. crus-galli, herbicidal effect (criteria of Test Example 1) [4]: 5 (Herbicidal ratio of 90% or more (almost completely withered)); M: Abutilon theophrasti, herbicidal effect (criteria of Test Example 1) (Abutilon theophrasti): 1 (Herbicidal ratio of 5% or higher and lower than 20%); F: Digitaria ciliaris, herbicidal effect (criteria of Test Example 1) (Digitaria ciliaris): 5 (Herbicidal ratio of 90% or more (almost completely withered))
